Reference: publication PMC4448990 (Pharmacology Research & Perspectives, 2015)
Like-named read-outs stand apart in the source and are kept apart here. Marks after values point to notes of the source that are not given here.

Tests used:
[1] = target: human GRIA1 receptor (Homo sapiens, UniProt P42261); test: AMPA-receptor-mediated currents in CHO cells; type: cell-based
[2] = target: human Nav1.3 sodium channels (Homo sapiens, UniProt Q9NY46); test: whole-cell patch clamp, Nav1.3 in CHO-K1 cells; type: cell-based; conditions: 250 μmol/L; for Fast inactivation V0.5 / Slow inactivation V0.5: n = 3–6; for time constant for entering the slow inactivated state: control 20.29 sec
Sequence of human Nav1.3 sodium channels (Q9NY46 whole entry): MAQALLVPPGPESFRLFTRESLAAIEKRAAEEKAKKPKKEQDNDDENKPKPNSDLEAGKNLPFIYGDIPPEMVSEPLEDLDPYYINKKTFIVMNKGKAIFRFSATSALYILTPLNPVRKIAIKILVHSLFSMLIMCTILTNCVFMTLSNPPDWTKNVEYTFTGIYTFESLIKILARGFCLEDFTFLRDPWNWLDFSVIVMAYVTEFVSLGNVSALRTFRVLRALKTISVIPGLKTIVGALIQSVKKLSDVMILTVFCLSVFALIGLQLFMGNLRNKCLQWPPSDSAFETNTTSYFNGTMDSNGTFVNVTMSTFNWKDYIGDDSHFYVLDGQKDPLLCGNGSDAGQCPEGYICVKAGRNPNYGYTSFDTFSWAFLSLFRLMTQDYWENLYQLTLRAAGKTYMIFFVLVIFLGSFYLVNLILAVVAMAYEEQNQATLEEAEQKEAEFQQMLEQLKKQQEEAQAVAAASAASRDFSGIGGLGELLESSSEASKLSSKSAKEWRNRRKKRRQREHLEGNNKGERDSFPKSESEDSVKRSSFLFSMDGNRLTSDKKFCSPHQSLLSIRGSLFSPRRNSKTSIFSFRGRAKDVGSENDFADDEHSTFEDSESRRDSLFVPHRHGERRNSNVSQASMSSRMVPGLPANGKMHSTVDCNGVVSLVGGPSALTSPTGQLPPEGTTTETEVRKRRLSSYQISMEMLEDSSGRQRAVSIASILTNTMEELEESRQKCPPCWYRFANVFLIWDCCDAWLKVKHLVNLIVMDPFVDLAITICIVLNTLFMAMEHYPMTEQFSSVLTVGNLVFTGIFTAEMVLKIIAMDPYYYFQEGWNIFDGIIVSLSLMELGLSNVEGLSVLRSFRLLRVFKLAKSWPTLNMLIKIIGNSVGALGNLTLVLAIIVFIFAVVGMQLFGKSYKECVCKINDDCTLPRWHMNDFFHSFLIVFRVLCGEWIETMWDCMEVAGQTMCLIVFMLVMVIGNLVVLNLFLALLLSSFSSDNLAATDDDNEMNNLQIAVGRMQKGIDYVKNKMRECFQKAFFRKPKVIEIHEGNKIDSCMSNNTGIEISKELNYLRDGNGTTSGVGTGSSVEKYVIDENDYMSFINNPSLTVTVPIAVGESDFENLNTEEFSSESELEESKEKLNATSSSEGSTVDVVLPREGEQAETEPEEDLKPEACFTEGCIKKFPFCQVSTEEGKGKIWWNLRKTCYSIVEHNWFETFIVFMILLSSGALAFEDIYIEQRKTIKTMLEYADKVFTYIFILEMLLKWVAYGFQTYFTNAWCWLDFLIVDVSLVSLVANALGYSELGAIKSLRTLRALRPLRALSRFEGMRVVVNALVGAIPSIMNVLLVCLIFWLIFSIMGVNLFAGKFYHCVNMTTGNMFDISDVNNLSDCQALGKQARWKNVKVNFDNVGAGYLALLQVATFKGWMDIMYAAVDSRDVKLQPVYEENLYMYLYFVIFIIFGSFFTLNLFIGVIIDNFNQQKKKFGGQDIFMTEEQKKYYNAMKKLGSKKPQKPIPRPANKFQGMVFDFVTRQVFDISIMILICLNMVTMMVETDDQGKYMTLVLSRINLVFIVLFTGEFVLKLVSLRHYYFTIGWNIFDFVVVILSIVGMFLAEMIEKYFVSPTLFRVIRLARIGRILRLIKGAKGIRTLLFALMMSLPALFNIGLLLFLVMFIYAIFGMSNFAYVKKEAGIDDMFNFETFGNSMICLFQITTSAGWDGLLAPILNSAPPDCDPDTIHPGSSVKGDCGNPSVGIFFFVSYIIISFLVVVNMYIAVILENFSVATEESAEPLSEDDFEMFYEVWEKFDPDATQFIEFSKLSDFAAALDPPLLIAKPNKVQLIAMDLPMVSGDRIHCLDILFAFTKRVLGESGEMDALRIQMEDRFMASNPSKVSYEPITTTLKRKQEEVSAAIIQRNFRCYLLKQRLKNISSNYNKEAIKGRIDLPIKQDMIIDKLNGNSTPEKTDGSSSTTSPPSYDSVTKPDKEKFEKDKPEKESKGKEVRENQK

[3] = human plasma and CSF pharmacokinetics; type: in vivo; conditions: LCM 600 mg twice daily, protein binding ∼15%
[4] = ref Doty et al. [2007]; cited from earlier work
[5] = test system: sodium channels endogenously expressed in N1E-115 mouse neuroblastoma cells; conditions: 250 μmol/L; ref Hebeisen et al. [2014]; cited from earlier work
[6] = target: T1, human GlyRα3 glycine receptors (Homo sapiens, UniProt O75311); test: submaximal glycine currents in CHO cells; type: cell-based
T1 sequence (O75311 34-464): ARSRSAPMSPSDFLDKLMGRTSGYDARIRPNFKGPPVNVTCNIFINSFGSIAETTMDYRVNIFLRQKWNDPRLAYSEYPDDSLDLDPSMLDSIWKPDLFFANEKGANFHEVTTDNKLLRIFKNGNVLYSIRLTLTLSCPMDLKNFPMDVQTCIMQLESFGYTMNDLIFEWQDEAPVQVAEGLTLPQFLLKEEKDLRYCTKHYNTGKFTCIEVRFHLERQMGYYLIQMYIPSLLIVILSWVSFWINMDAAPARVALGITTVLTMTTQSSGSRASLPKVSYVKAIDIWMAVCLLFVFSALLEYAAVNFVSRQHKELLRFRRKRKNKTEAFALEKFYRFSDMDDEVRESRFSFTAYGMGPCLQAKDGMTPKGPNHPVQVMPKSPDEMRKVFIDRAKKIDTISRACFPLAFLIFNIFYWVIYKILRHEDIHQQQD

[7] = target: human GRIN1/GRIN2B NMDA receptor (Homo sapiens, UniProt Q05586+Q13224); test: submaximal NMDA-receptor-mediated currents in HEK cells; type: cell-based
[8] = target: human α1β2γ2 GABAA receptors (Homo sapiens, UniProt P14867+P18507+P47870); test: submaximal GABA currents in Ltk cells; type: cell-based
Sequence of human α1β2γ2 GABAA receptors (P14867 28-456): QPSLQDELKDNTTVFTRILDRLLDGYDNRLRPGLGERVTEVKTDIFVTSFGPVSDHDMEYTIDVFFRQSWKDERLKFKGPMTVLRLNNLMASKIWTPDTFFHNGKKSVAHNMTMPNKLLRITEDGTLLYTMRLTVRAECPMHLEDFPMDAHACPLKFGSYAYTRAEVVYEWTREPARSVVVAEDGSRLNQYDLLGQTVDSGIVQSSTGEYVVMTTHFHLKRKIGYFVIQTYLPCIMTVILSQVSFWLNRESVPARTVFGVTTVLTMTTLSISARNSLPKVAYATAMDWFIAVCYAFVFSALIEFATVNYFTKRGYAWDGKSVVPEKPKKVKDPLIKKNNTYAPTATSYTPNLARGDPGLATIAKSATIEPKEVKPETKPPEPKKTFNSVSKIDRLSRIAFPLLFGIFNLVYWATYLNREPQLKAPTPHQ
Sequence of human α1β2γ2 GABAA receptors (P47870 25-512 limits assumed): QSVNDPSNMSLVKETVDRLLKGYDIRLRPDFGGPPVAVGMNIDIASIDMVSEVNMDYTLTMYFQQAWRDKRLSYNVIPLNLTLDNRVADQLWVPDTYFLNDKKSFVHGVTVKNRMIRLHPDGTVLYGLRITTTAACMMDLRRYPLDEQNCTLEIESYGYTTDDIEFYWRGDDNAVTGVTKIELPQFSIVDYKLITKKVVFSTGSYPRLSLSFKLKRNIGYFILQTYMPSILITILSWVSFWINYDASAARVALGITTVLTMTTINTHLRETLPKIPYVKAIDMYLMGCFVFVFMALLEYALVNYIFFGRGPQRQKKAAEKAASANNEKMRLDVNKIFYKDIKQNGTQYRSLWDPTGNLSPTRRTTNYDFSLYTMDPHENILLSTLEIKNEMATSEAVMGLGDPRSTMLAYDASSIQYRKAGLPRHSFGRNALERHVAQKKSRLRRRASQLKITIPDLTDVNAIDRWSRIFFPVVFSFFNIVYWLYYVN
Sequence of human α1β2γ2 GABAA receptors (P18507 40-475): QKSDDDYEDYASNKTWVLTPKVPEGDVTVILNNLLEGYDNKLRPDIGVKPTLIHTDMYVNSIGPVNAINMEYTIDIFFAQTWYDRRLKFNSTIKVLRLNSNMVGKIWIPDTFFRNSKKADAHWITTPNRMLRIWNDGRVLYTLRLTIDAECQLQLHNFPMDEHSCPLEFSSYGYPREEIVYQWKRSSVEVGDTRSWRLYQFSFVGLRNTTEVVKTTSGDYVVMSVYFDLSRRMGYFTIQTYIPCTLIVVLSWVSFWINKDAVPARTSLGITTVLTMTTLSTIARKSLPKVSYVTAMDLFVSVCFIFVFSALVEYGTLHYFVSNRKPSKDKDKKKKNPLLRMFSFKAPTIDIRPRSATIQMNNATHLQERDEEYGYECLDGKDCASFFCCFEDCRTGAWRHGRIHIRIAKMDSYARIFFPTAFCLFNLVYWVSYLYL

[9] = test system: kindling epileptogenesis; test: bilateral corneal kindling; type: in vivo, mouse; conditions: Table 5 summary; values are ED50 (mg/kg)
[10] = target: hCav2.1 calcium channels (Homo sapiens, UniProt O00555); test: whole-cell patch clamp, hCav2.1 in CHO cells; type: cell-based; conditions: IC50, hCav2.1 calcium peak currents, 0.3–1000 μmol/L, holding potential −80 mV
[11] = target: human α2β2γ2 GABAA receptors (Homo sapiens, UniProt P18507+P47869+P47870); test: submaximal GABA currents in Ltk cells; type: cell-based
Sequence of human α2β2γ2 GABAA receptors (P47869 29-451): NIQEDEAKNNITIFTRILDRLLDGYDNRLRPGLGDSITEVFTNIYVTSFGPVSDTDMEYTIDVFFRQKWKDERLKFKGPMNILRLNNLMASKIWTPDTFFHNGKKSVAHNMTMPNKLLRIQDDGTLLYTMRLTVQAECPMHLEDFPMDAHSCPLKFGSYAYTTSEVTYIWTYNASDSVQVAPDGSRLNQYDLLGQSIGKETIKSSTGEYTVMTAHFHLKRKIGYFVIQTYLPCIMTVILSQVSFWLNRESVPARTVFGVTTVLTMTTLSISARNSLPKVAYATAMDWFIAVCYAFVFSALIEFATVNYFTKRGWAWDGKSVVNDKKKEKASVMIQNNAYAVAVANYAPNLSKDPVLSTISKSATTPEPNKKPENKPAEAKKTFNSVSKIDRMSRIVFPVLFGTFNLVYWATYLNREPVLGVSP
Sequence of human α2β2γ2 GABAA receptors (P47870 25-512 limits assumed): as the sequence (P47870 25-512 limits assumed) above
Sequence of human α2β2γ2 GABAA receptors (P18507 40-475): as the sequence (P18507 40-475) above

[12] = target: human α3β2γ2 GABAA receptors (Homo sapiens, UniProt P18507+P34903+P47870); test: submaximal GABA currents in Ltk cells; type: cell-based
Sequence of human α3β2γ2 GABAA receptors (P34903 29-492): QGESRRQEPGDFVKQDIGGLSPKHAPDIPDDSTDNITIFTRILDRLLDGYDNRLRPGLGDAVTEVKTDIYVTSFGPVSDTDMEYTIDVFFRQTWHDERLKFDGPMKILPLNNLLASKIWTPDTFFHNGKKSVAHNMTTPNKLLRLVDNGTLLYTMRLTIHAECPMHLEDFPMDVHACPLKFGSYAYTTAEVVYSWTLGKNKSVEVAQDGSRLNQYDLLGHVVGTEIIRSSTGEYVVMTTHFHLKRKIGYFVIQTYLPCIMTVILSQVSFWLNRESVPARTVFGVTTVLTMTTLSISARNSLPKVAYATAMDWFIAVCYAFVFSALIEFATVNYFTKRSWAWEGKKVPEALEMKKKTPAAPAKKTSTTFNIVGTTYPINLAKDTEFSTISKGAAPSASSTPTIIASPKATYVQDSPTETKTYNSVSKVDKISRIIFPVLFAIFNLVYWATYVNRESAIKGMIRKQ
Sequence of human α3β2γ2 GABAA receptors (P47870 25-512 limits assumed): as the sequence (P47870 25-512 limits assumed) above
Sequence of human α3β2γ2 GABAA receptors (P18507 40-475): as the sequence (P18507 40-475) above

[13] = target: human α5β2γ2 GABAA receptors (Homo sapiens, UniProt P18507+P31644+P47870); test: submaximal GABA currents in Ltk cells; type: cell-based
Sequence of human α5β2γ2 GABAA receptors (P31644 32-462): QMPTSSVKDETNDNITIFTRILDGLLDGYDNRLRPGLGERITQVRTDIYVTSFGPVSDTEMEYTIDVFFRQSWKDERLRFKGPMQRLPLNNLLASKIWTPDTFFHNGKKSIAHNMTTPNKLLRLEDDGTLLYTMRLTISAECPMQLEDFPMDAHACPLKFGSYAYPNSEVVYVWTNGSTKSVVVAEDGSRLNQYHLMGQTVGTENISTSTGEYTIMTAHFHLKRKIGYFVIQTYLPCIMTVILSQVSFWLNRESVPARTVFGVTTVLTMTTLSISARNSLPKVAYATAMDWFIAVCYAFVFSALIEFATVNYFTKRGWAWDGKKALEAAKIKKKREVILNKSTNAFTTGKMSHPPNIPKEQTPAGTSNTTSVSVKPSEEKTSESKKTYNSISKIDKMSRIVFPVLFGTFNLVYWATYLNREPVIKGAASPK
Sequence of human α5β2γ2 GABAA receptors (P47870 25-512 limits assumed): as the sequence (P47870 25-512 limits assumed) above
Sequence of human α5β2γ2 GABAA receptors (P18507 40-475): as the sequence (P18507 40-475) above

[14] = target: hKv7.2 potassium channels (Homo sapiens, UniProt O43526); test: whole-cell patch clamp, hKv7.2 in CHO cells; type: cell-based
[15] = test system: Racine stage 5 seizures; test: proconvulsant effects; type: in vivo
[16] = test system: transient Na+ current (INaT); conditions: ref Döser et al. [2013b], [2015]; cited from earlier work
[17] = test system: MES-induced seizures; conditions: mouse, ESL 50 mg/kg p.o.; ref Pires et al. [2011]; cited from earlier work
[18] = test system: latrunculin A-induced seizures; conditions: ESL 100 mg/kg oral, ref Sierra-Paredes et al. [2011], 2014, cited from earlier work
[19] = ref Nunes et al. [2013], cited from earlier work

NS(=O)(=O)c1cccc2c1c([N+](=O)[O-])cc1nc(O)c(O)nc12 [NBQX, 2,3-Dioxo-6-nitro-1,2,3,4-tetrahydrobenzo[f]quinoxaline-7-sulfonamide]
IC50 [1]: 19 µM

COC[C@@H](NC(C)=O)C(=O)NCc1ccccc1 [LCM, lacosamide]
Fast inactivation V0.5 ([2]; mean ± SEM): −53.54 ± 3.95 mV
Slow inactivation V0.5 ([2]; mean ± SEM): −37.04 ± 2.72 mV
time constant for entering the slow inactivated state [2]: 10.91 s
LCM-free drug, peak plasma [3]: 49 µmol/L
LCM protein binding [4]: ~15%
recovery of fast inactivated channels [5]: recovered similar to control conditions

O=C1C[C@@H]2OCC=C3CN4CC[C@]56c7ccccc7N1[C@H]5[C@H]2[C@H]3C[C@H]46 [Strychnine]
IC50 [6]: 0.052 µM

N[C@H](CCCP(=O)(O)O)C(=O)O [D-AP5, D-(−)-2-amino-5-phosphonopentanoic]
IC50 ([7]; read-out: IC50, NMDA receptor-mediated currents, submaximal currents, HEK cells GRIN1/GRIN2B): 7 µM

Cc1ncc2n1-c1ccc(Cl)cc1C(c1ccccc1F)=NC2 [midazolam]
increase of submaximal α1β2γ2 GABA currents ([8]; 3 μmol/L): ~80%

NC(=O)N1c2ccccc2C=Cc2ccccc21 [CBZ, carbamazepine]
Corneal kindling (antiepileptogenic models) [9]: 140 mg/kg
Fast inactivation V0.5 ([2]; mean ± SEM): −72.33 ± 5.04 mV
Slow inactivation V0.5 ([2]; mean ± SEM): −21.56 ± 3.23 mV
Fast inactivation, individual shifts ([2]; versus control (bath), mean ± SEM): −14.35 mV
time constant for entering the slow inactivated state [2]: not affected
IC50 [10]: 452 µM
GABA inward current stimulation, α1β2γ2, Mean ± SEM ([8]; 50 μmol/L): 104.3 ± 5.0
GABA inward current stimulation, α1β2γ2, Mean ± SEM ([8]; 100 μmol/L): 117.4 ± 4.9
GABA inward current stimulation, α1β2γ2, Mean ± SEM ([8]; 250 μmol/L): 115.7 ± 5.3
GABA inward current stimulation, α1β2γ2, Mean ± SEM ([8]; 500 μmol/L): 132.4 ± 5.3
GABA inward current stimulation, α1β2γ2, Mean ± SEM ([8]; 1000 μmol/L): 150.3 ± 15.5
increase of submaximal α1β2γ2 GABA currents ([8]; 1000 μmol/L): 50%
GABA inward current stimulation, α2β2γ2, Mean ± SEM ([11]; 50 μmol/L): 97.9 ± 3.3
GABA inward current stimulation, α2β2γ2, Mean ± SEM ([11]; 100 μmol/L): 111.4 ± 2.7
GABA inward current stimulation, α2β2γ2, Mean ± SEM ([11]; 250 μmol/L): 109.0 ± 7.6
GABA inward current stimulation, α2β2γ2, Mean ± SEM ([11]; 500 μmol/L): 103.6 ± 7.6
GABA inward current stimulation, α2β2γ2, Mean ± SEM ([11]; 1000 μmol/L): 104.2 ± 2.7
GABA inward current stimulation, α3β2γ2, Mean ± SEM ([12]; 50 μmol/L): 93.3 ± 4.1
GABA inward current stimulation, α3β2γ2, Mean ± SEM ([12]; 100 μmol/L): 112.8 ± 5.4
GABA inward current stimulation, α3β2γ2, Mean ± SEM ([12]; 250 μmol/L): 131.1 ± 9.4
GABA inward current stimulation, α3β2γ2, Mean ± SEM ([12]; 500 μmol/L): 120.3 ± 11.8
GABA inward current stimulation, α3β2γ2, Mean ± SEM ([12]; 1000 μmol/L): 166.7 ± 21.0
increase of submaximal α3β2γ2 GABA currents ([12]; 1000 μmol/L): 66%
GABA inward current stimulation, α5β2γ2, Mean ± SEM ([13]; 50 μmol/L): 103.8 ± 1.5
GABA inward current stimulation, α5β2γ2, Mean ± SEM ([13]; 100 μmol/L): 103.8 ± 4.5
GABA inward current stimulation, α5β2γ2, Mean ± SEM ([13]; 250 μmol/L): 93.6 ± 4.3
GABA inward current stimulation, α5β2γ2, Mean ± SEM ([13]; 500 μmol/L): 80.7 ± 5.9
GABA inward current stimulation, α5β2γ2, Mean ± SEM ([13]; 1000 μmol/L): 63.0 ± 4.5
IC50 [14]: 572 µM
IC50 [7]: 214 µM
IC50, AMPA currents ([1]; CHO cells, human GRIA1): neither eslicarbazepine nor CBZ significantly changed AMPA currents
IC50 [6]: 441 µM
Racine stage 5 seizures (proconvulsant effects) ([15]; at 45 mg/kg): 80% ^**
recovery of fast inactivated channels [5]: required longer pulses to recover
inhibition of firing of DGCs, control versus pilocarpine-treated rats [16]: significantly reduced in chronic experimental epilepsy

CC(=O)O[C@H]1Cc2ccccc2N(C(N)=O)c2ccccc21 [ESL, (S)-10-acetoxy-10,11-dihydro-5H-dibenz/b,f/azepine-5-carboxamide]
Corneal kindling (antiepileptogenic models) [9]: 30 mg/kg
Racine stage 5 seizures (proconvulsant effects) ([15]; at 240 mg/kg): 22% ^*
protection against MES-induced seizures [17]: 97%
hippocampal extracellular glutamate levels ([18]; microdialysate): significantly reduced glutamate levels
acute and chronic latrunculin A-induced seizures and EEG chronic signs of paroxysmal activity ([18]; Swiss mice, previous to latrunculin A microperfusion): completely prevented

NC(=O)N1c2ccccc2CC(=O)c2ccccc21 [OXC, oxcarbazepine]
Fast inactivation V0.5 ([2]; mean ± SEM): −55.95 ± 2.91 mV
Slow inactivation V0.5 ([2]; mean ± SEM): −19.47 ± 4.55 mV
time constant for entering the slow inactivated state [2]: not affected
recovery of fast inactivated channels [5]: required longer pulses to recover
CSF Cmax of nonmetabolized OXC ([19]; ESL 1200 mg QD): 380 nM
CSF Cmax of nonmetabolized OXC ([19]; OXC 600 mg BID): 1820 nM
